In US9616063B2, “1-[2-(aminomethyl)benzyl]-2-thioxo-1,2,3,5-tetrahydro-4H-pyrrolo[3,2-d]pyrimidin-4-ones as inhibitors of myeloperoxidase” (AstraZeneca AB, priority 2014, dated 2017):

Key:
[1] = biological target: baculovirus-expressed recombinant human TPO (Homo sapiens (Human), UniProt P07202); assay: TPO inhibition (hypoiodous acid production, absorbance at 353 nm); format: biochemical
Procedure: To detect thyroid peroxidase (TPO) inhibitory activity, the production of hypoiodous acid (HOI) was quantified. HOI was detected by reacting it with methionine, which is converted to dehydro-methionine, which in turn is detected by reacting it with excess iodide at acidic pH. The reaction converts I^− to I3^− that has absorbance at 353 nm. In brief, 0.6 μL compound serially diluted in DMSO was added to 25 μL 50 nM baculovirus-expressed recombinant human TPO (obtained from RSR Ltd, Cardiff, UK) in assay buffer (100 mM Na2HPO4/NaH2PO4, pH 7.4), after which absorbance at 353 nm was read to obtain a blank value. The enzyme reaction was initiated by the addition of 25 μL of a mix consisting of 2 mM methionine, 20 μM NaI and 100 μM H2O2 in assay buffer, and stopped by the addition of 10 μL catalase, 0.25 mg/mL. […] IC50 values of the compounds tested were obtained using standard procedures.

[2] = Plasma urate levels in Healthy Volunteers after MPO inhibitor treatment (clinical trial); format: in vivo, human; details: daily dose for 10 days, FIG. 2, NCT00914303
Procedure: Subjects received placebo or the indicated daily dose for 10 days, and the difference in plasma urate levels versus baseline was calculated. Each symbol represents one subject.

[3] = healthy subjects, clinical trial, data not shown; cited from earlier work
[4] = system: MPO purified from the human cell line HL60; assay: MPO inhibition, Test A (loss of ascorbate, absorbance at 260 nm); format: biochemical; details: ratio TPO to MPO, selectivity for MPO over TPO
Procedure: (§1) Methods for the determination of MPO inhibitory activity are disclosed in WO 02/090575. The pharmacological activity of compounds disclosed herein was tested in the following screen (Test A) in which the compounds were tested in the presence of ascorbate, which reacts with MPO-derived hypochlorous acid (HOCl) to form dehydro-ascorbate. The loss of ascorbate is followed by measuring absorbance at 260 nm.
(§2) Assay buffer: 100 μM diethyl triamine pentaacetic acid (DTPA) in buffer consisting of 10 mM Na2HPO4/NaH2PO4, 3 mM KCl in 140 mM NaCl, pH 7.4.
(§3) Enzyme solution: MPO purified from the human cell line HL60, 1.38 nM (final concentration 0.7 nM) and L-ascorbate, 100 μM (final concentration 50 μM) in Assay buffer
(§4) Substrate solution: H2O2, 98 μM (final concentration 49 μM) Forty μL of the enzyme solution was added to 0.6 μL compound serially diluted in DMSO. Absorbance was measured at 260 nm to obtain a compound blank value. After an additional 10 min, 40 μL of the substrate solution was added and the absorbance at 260 nm was recorded between 4 and 40 min to obtain kinetic readings of enzyme activity.

[5] = biological target: MPO purified from the human cell line HL60 (Homo sapiens (Human), UniProt P05164); assay: as above; format: biochemical; details: absorbance at 260 nm 20 minutes after substrate addition
MPO purified from the human cell line HL60 (Homo sapiens (Human), UniProt P05164), sequence (P05164 whole entry, looked up, change not shown): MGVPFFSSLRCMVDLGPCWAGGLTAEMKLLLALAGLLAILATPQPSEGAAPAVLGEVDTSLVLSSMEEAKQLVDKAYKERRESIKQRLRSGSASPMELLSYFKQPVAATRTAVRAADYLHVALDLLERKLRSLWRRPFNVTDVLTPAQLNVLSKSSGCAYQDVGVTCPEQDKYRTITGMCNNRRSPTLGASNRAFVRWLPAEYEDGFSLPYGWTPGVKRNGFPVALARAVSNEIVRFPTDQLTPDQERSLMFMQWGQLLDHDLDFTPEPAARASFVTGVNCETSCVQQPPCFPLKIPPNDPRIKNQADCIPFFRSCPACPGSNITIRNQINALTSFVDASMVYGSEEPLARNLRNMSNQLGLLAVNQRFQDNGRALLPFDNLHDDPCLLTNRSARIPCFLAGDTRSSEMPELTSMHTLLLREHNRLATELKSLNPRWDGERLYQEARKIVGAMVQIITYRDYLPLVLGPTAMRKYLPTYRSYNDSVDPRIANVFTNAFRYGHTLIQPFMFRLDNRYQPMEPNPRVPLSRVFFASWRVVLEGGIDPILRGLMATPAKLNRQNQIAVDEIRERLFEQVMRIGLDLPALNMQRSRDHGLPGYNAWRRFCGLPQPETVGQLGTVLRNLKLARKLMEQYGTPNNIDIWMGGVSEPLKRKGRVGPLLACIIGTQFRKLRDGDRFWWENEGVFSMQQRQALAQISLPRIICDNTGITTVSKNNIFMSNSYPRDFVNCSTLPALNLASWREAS
MPO purified from the human cell line HL60 (Homo sapiens (Human), UniProt P05164), sequence (P05164 whole entry, looked up, change not shown): as above
Procedure: as §1, §2, §3, §4

activated MPO = activated MPO (Homo sapiens (Human), UniProt P05164); assay: Urate production from xanthine by activated MPO in vitro (LC-MS); format: biochemical; details: activated MPO incubated with xanthine and titrated compound for 80 min
activated MPO, sequence (P05164 49-745): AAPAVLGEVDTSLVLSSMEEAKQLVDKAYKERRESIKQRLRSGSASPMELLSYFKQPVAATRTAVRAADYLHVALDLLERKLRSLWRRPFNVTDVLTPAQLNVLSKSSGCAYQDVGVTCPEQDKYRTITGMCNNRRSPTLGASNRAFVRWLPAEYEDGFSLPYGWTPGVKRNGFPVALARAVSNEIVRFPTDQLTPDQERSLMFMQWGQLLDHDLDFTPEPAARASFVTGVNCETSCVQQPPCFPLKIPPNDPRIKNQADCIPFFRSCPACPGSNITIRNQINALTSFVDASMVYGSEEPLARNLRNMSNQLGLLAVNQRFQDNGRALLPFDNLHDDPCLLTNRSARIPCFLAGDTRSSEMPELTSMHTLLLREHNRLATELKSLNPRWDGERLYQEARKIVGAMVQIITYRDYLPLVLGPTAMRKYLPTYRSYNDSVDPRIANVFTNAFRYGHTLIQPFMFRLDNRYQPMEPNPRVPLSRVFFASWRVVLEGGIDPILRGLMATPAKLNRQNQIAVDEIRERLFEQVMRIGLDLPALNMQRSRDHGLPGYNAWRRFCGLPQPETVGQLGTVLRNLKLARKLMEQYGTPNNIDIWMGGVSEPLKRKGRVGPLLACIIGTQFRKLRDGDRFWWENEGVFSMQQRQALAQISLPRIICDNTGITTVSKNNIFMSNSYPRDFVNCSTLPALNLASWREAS
Description: The dotted line represents the urate formed in the presence of unactivated MPO.
In addition to MPOs role in maintaining elevated urate levels due to poor perfusion as discussed above, we also propose that MPO per se may generate urate by oxidizing xanthine in concert with xanthine oxidase.

baculovirus-expressed recombinant human TPO, sequence (P07202 19-933): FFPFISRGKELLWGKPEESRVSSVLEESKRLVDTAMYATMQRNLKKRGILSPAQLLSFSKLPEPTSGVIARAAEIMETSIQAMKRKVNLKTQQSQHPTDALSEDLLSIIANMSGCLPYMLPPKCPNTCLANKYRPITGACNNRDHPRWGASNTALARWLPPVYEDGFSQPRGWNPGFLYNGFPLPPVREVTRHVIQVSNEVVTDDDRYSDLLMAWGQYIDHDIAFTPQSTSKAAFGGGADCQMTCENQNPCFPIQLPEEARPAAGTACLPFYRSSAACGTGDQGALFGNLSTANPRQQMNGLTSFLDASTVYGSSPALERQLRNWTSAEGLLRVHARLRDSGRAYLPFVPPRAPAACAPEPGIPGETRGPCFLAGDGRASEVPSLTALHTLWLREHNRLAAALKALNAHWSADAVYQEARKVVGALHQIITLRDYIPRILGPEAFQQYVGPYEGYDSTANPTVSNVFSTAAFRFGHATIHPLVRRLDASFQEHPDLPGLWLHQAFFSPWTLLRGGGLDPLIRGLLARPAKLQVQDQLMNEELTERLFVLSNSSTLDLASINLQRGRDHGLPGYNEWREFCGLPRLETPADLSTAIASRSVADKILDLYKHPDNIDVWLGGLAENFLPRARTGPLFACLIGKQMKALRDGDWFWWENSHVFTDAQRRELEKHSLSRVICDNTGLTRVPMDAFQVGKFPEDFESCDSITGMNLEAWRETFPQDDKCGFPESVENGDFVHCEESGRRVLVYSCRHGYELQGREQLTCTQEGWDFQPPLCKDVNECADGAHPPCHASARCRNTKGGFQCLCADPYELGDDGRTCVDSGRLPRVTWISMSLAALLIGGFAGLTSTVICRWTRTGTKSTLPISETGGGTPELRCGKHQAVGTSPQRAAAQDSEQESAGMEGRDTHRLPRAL

Compound	IC50 [1]	reduction of plasma urate levels versus baseline [2]	reduction of urate levels [3]	IC50 (TPO)/IC50 (MPO) [4]	IC50 [5]	inhibition of urate production by activated MPO (activated MPO)
CC(N)c1cc(Cl)ccc1Cn1c(=S)[nH]c(=O)c2[nH]ccc21 (racemic) [Example 2, 1-[2-(1-Aminoethyl)-4-chlorobenzyl]-2-thioxo-1,2,3,5-tetrahydro-4H-pyrrolo[3,2-d]pyrimidin-4-one]	8.8 µM	–	–	–	–	–
CC(C)OCCn1c(=S)[nH]c(=O)c2[nH]ccc21 [AZD3241]	–	dose-dependently reduced urate levels	–	–	–	–
O=c1[nH]c(=S)n(C[C@H]2CCCO2)c2nc[nH]c12 [AZD5904]	–	–	dose-dependently reduced urate levels	–	–	–
CC[C@@H](N)c1cc(Cl)ccc1Cn1c(=S)[nH]c(=O)c2[nH]ccc21 [Example 1, 1-{2-[(1R)-1-Aminopropyl]-4-chlorobenzyl}-2-thioxo-1,2,3,5-tetrahydro-4H-pyrrolo[3,2-d]pyrimidin-4-one]	4.4 µM	–	–	512	0.0086 µM	–
C[C@@H](N)c1cc(Cl)ccc1Cn1c(=S)[nH]c(=O)c2[nH]ccc21 [Example 3, 1-{2-[(1R)-1-Aminoethyl]-4-chlorobenzyl}-2-thioxo-1,2,3,5-tetrahydro-4H-pyrrolo[3,2-d]pyrimidin-4-one]	4.3 µM	–	–	–	–	concentration-dependently inhibited
C[C@H](N)c1cc(Cl)ccc1Cn1c(=S)[nH]c(=O)c2[nH]ccc21 [Example 4b, 1-{2-[(1S)-1-Aminoethyl]-4-chlorobenzyl}-2-thioxo-1,2,3,5-tetrahydro-4H-pyrrolo[3,2-d]pyrimidin-4-one]	68 µM	–	–	–	–	–
CNC(C)c1cc(Cl)ccc1Cn1c(=S)[nH]c(=O)c2[nH]ccc21 (stereo not shown) [Example 5, 1-{4-Chloro-2-[1-(methylamino)ethyl]benzyl}-2-thioxo-1,2,3,5-tetrahydro-4H-pyrrolo[3,2-d]pyrimidin-4-one]	8.9 µM	–	–	468	0.019 µM	–
CCNCc1cc(Cl)ccc1Cn1c(=S)[nH]c(=O)c2[nH]ccc21 [Example 6, 1-{4-Chloro-2-[(ethylamino)methyl]benzyl}-2-thioxo-1,2,3,5-tetrahydro-4H-pyrrolo[3,2-d]pyrimidin-4-one]	10 µM	–	–	455	0.022 µM	–
NCc1cc(Cl)ccc1Cn1c(=S)[nH]c(=O)c2[nH]ccc21 [Example 7, 1-[2-(Aminomethyl)-4-chlorobenzyl]-2-thioxo-1,2,3,5-tetrahydro-4H-pyrrolo[3,2-d]pyrimidin-4-one]	11 µM	–	–	–	–	–
CNCc1cc(Cl)ccc1Cn1c(=S)[nH]c(=O)c2[nH]ccc21 [Example 8, 1-{4-Chloro-2-[(methylamino)methyl]benzyl}-2-thioxo-1,2,3,5-tetrahydro-4H-pyrrolo[3,2-d]pyrimidin-4-one]	13 µM	–	–	952	0.013 µM	–
O=c1[nH]c(=S)n(Cc2ccccc2CNCC2CCC2)c2cc[nH]c12 [Example 9, 1-(2-{[(Cyclobutylmethyl)amino]methyl}benzyl)-2-thioxo-1,2,3,5-tetrahydro-4H-pyrrolo[3,2-d]pyrimidin-4-one]	16 µM	–	–	552	0.029 µM	–
O=c1[nH]c(=S)n(Cc2ccccc2CNC2CCC2)c2cc[nH]c12 [Example 10, 1-{2-[(Cyclobutylamino)methyl]benzyl}-2-thioxo-1,2,3,5-tetrahydro-4H-pyrrolo[3,2-d]pyrimidin-4-one]	11 µM	–	–	1100	0.01 µM	–
O=c1[nH]c(=S)n(Cc2ccccc2CNC2CCCC2)c2cc[nH]c12 [Example 11, 1-{2-[(Cyclopentylamino)methyl]benzyl}-2-thioxo-1,2,3,5-tetrahydro-4H-pyrrolo[3,2-d]pyrimidin-4-one]	19 µM	–	–	1357	0.014 µM	–
CC(C)CNCc1ccccc1Cn1c(=S)[nH]c(=O)c2[nH]ccc21 [Example 12, 1-(2-{[(2-Methylpropyl)amino]methyl}benzyl)-2-thioxo-1,2,3,5-tetrahydro-4H-pyrrolo[3,2-d]pyrimidin-4-one]	46 µM	–	–	852	0.054 µM	–
CC(C)NCc1ccccc1Cn1c(=S)[nH]c(=O)c2[nH]ccc21 [Example 13, 1-{2-[(Propan-2-ylamino)methyl]benzyl}-2-thioxo-1,2,3,5-tetrahydro-4H-pyrrolo[3,2-d]pyrimidin-4-one]	38 µM	–	–	1609	0.024 µM	–
NCc1cc(C(F)(F)F)ccc1Cn1c(=S)[nH]c(=O)c2[nH]ccc21 [Example 14, 1-[2-(Aminomethyl)-4-(trifluoromethyl)benzyl]-2-thioxo-1,2,3,5-tetrahydro-4H-pyrrolo[3,2-d]pyrimidin-4-one]	28 µM	–	–	697	0.04 µM	–
CNCc1cc(C(F)(F)F)ccc1Cn1c(=S)[nH]c(=O)c2[nH]ccc21 [Example 15, 1-{2-[(Methylamino)methyl]-4-(trifluoromethyl)benzyl}-2-thioxo-1,2,3,5-tetrahydro-4H-pyrrolo[3,2-d]pyrimidin-4-one]	11 µM	–	–	224	0.049 µM	–
